One series has as its system E. coli ML 35. The series can be described thus: Inner membrane permeabilization (β-galactosidase, ONPG). The format is cell-based. Conditions: 4 ug peptide; +5 mM Mg. The procedure:
Inner membrane permeability was determined by measurement in E. coli ML 35 of β-galactosidase activity using ONPG as a substrate. Normally ONPG cannot pass across the cytoplasmic membrane to permit hydrolysis by the cytoplasmic enzyme β-galactosidase. However, cationic peptides, by permeabilizing the inner membrane, unmasks this enzyme leading to color development as ONP is released. […] Addition of citrate increased the lag time before the peptides were able to permeabilize the membranes. When the experiments were executed in cation adjusted media (CAMHB), the lag time was increased up to 30 minutes.

The subject of series [1] is LPS-induced TNF in RAW 264.7 macrophage cells. The series can be described thus: Inhibition of LPS-mediated TNF induction in macrophages (L929 cytotoxic assay). The format is cell-based. The method, then:
RAW 264.7 macrophage cells were grown by seeding 10^6 cells into a 162 cm^2 cell culture flask and incubated at 37° C., 5%CO2 for 1 week. RAW cell media [(Dulbecco's Modified Eagle Medium with Hepes buffer 450 ml; 2.4 mML-glutamine 3 ml (400 mM); Pen/Strep 3 ml (10^4U/ml of Pen, 1 mg/ml strep); and 10% heat inactivated fetal bovine serum (FBS) 50 ml)] was then completely removed from flasks. 10 mls of cell dissociation solution (Sigma) was added to each flask and inc; bated at 37° C. for 10 minutes. Cells were removed from flasks, diluted in RAW cell media and centrifuged for 6 minutes. The cell pellet was resuspended in 5 ml of media/flask used, 100 μl cell suspension was removed and added to 400 ∥l of trypan blue and cells were counted using a hemocytometer. The cell suspension was diluted to 1×10^6 cells/ml and 1 ml of suspension was added per well of a 24 well plate. The 24 well plates were incubated at 37° C., 5% CO2 overnight for use in the assay.
After an overnight incubation, the media was aspirated from all the wells. 100 μl of Lipopolysaccharide (LPS) was added at 100 ng/100 μl. CEME, CEMA or MBI 29 was added at the desired concentration/100 μl to specified wells. […] The plates were then incubated for six hours at 37° C., 5% CO2. The supernatant was then removed from the wells and stored overnight at 4° C. For those wells in which whole bacteria were added directly to the wells, the supernatant was centrifuged in 0.2 μm filter eppendorf tubes for 5 minutes.
The supernatants were then used in cell cytotoxic L929 assay. The samples were transferred to 96 well plates. […]
TNF-sensitive L929 mouse fibroblast cells were grown by seeding 10^6 cells into a 162 cm^2 cell culture flask and left to grow for 1 week. […] The pellet was resuspended in 5 mls of fresh L929 media/flask and counted (same as RAW cells). […]
The plates were read at 570 nm in a ELISA plate reader with 690 nm reference filter. […]
In order to determine how rapidly the cationic peptides reduced LPS-induced TNF production, E. coli 0111:B4 was added at time 0 to RAW macrophages. […] Levels of TNF were measured after 6 hours. […]

Another series concerns RAW cells. Briefly: RAW cell viability by Trypan blue exclusion. It is filed as cell-based.
The test system of another series is Red Blood Cells. Briefly: Red Blood Cell lysis. The format is cell-based.
The next series concerns P. aeruginosa. The series can be described thus: microbe, parasite or virus in culture. The note with it: agent alone. The procedure:
FICs are performed by checkerboard titrations of peptides in one dimension of a microtiter plate, and of antibiotics in the other dimension, for example. The FIC is calculated by looking at the impact of one antibiotic on the MIC of the other and vice versa. […] Preferably, an FIC of less than 0.5 is obtained for synergism. As used herein, FIC can be determined as follows: [formula]
Synergism is identified as an FIC of about ≦0.5.

The next series deals with Candida albicans. The series can be described thus: MIC, broth dilution in LB-S. The format is cell-based. Details: unit not given beside the values. Conditions: Candida albicans (CAN105); Table 1a. The method, then: The biological activity of the peptides can be determined by standard methods known to those of skill in the art, such as “minimal inhibitory concentration (MIC)” assay described in the present examples, whereby the lowest concentration at which no change in OD is observed for a given period of time is recorded as MIC. Alternatively, “fractional inhibitory concentration (FIC)” is also useful for determination of synergy between the peptides of the invention, or the peptides in combination with known antibiotics. FICs are performed by checkerboard titrations of peptides in one dimension of a microtiter plate, and of antibiotics in the other dimension, for example. The FIC is calculated by looking at the impact of one antibiotic on the MIC of the other and vice versa. […] Preferably, an FIC of less than 0.5 is obtained for synergism. As used herein, FIC can be determined as follows: [formula]
Briefly, cells were grown overnight at 37° C. in LB-S (Luria broth without any salt supplement) and diluted one in 10,000 in the same medium to give concentrations of about 10^4 to 10^5 CFU/ml. The broth dilutions were set up in a 96 well microtiter plate by putting 200 μl of LB-S containing the initial concentration of antibiotic or compound in column 1 and 100 μl of the same medium in columns 2-12. […] The next day the plates were scored for growth in the wells, and the MIC determined.

Here are results for 2 molecules from patent US6465429B1, “Antimicrobial cationic peptides” (priority 1995, dated 2002).

“And” between values parts separate entries of the source, which are not always exact repeats. Equal entries are not always repeated. “Also recorded” adds a separate entry of the source.

Turning to `CC[C@H](C)[C@H](NC(=O)[C@H](CC(C)C)NC(=O)[C@H](C)NC(=O)[C@@H]1CCCN1C(=O)[C@H](CC(C)C)NC(=O)CNC(=O)[C@@H](NC(=O)[C@@H](NC(=O)[C@H](CC(C)C)NC(=O)[C@@H](NC(=O)[C@H](CCCCN)NC(=O)[C@H](CCCCN)NC(=O)[C@@H](NC(=O)[C@H](C)NC(=O)[C@@H](NC(=O)[C@@H](NC(=O)[C@H](CC(C)C)NC(=O)[C@H](CCCCN)NC(=O)[C@H](CCCCN)NC(=O)[C@@H](NC(=O)[C@H](Cc1ccccc1)NC(=O)[C@H](CO)NC(=O)[C@H](CCCCN)NC(=O)[C@H](Cc1c[nH]c2ccccc12)NC(=O)[C@@H](N)CCCCN)[C@@H](C)CC)[C@@H](C)O)[C@@H](C)O)C(C)C)C(C)C)[C@@H](C)O)[C@@H](C)O)C(=O)N[C@@H](CO)C(=O)O` [MBI 29], the “effect of 5 mM Mg++ on inner membrane permeabilization” value with E. coli ML 35 is recorded as “the least affected by any of the conditions”. In addition, the “TNF induction in washed RAW cells pre-incubated with peptide” value in series [1] (20 μg MBI 29 for 60 minutes, washed 3 times, then 10 ng or 100 ng LPS) was 14,000-20,000 Units of TNF per ml. The “inhibition of TNF induction by LPS” value in series [1] (E. coli 0111:B4 LPS, peptide added at 0, 30 and 60 minutes, TNF after 6 hours) is reported as “inhibited TNF induction by LPS in a similar manner to polymyxin B”. The “reduction of LPS-induced TNF when added after LPS” value in series [1] (added 60 minutes after the addition of LPS) was “effective at reducing the ability of LPS to induce TNF; also recorded: distinct and reproducible advantage over polymyxin B”. In addition, the “amount causing no apparent decrease in RAW cell viability” value in the series on RAW cells is recorded as “Up to 50 μg”. Besides, in the series with Red Blood Cells, the “RBC Lysis” value is greater than 55 µg/mL. The MIC in the series on P. aeruginosa (P. aeruginosa isolate 27, strain 14644) is 128 µg/mL and 123 µg/mL; in the series on P. aeruginosa (P. aeruginosa isolate 28, strain 15036), 128 µg/mL; with P. aeruginosa (Table 33, P. aeruginosa isolate 23, strain ATCC 27853) it was 32 μg · mL^1; in the series on P. aeruginosa (Table 33, P. aeruginosa isolate 24, strain 34) it was 16 μg · mL^1; in the series on P. aeruginosa (Table 33, P. aeruginosa isolate 25, strain 923-1), 32 μg · mL^1; in the series with P. aeruginosa (Table 33, P. aeruginosa isolate 26, strain 3101), 32 μg · mL^1. For the same molecule, the MIC turned out to be 32 μg · mL^1 in the series with P. aeruginosa (Table 33, P. aeruginosa isolate 27, strain 14644); 32 μg · mL^1 in the series with P. aeruginosa (Table 33, P. aeruginosa isolate 28, strain 15036); 32 μg · mL^1 with P. aeruginosa (Table 33, P. aeruginosa isolate 29, strain 15545); 32 μg · mL^1 in the series with P. aeruginosa (Table 33, P. aeruginosa isolate 30, strain B3999-1); 32 μg · mL^1 in the series on P. aeruginosa (Table 33, P. aeruginosa isolate 31, strain U7688-1); 32 μg · mL^1 in the series on P. aeruginosa (Table 33, P. aeruginosa isolate 32, strain W2897-1). The MIC with P. aeruginosa (Table 33, P. aeruginosa isolate 33, strain W5483-2) is 32 μg · mL^1.
With KWKLFKKIGIGAVLKVLTTGLPALIS [CEME], in the series with Candida albicans, the MIC entry is on record as “≧64”.
